We go through 2 compounds from patent publication US10660578B2, “Combining electronic monitoring with inhaled pharmacological therapy to manage cardiac arrhythmias including atrial fibrillation” (InCarda Therapeutics, Inc., priority 2016, dated 2020).

One data set has as its system atrial fibrillation. Nature of the data set: Administration of diltiazem by inhalation in atrial fibrillation. It counts as in vivo. The text has this: Inhalation avoids the initial dilution of drug in the body as compared to intravenous or oral dosing. Inhalation also avoids first-pass metabolism, such as hepatic metabolism. For instance, calcium channel blockers, such as diltiazem, undergo significant hepatic metabolism when taken orally. Inhalation allows rapid delivery of the parent diltiazem compound to the heart as a bolus. […] Thus, administration by inhalation of diltiazem is useful for treating both atrial fibrillation and supraventricular tachycardia (SVT). In contrast, administration by IV of diltiazem is typically only used for converting SVT to normal sinus rhythm and in atrial fibrillation to reduce heart rate (not for converting to normal sinus rhythm). Inhalation also avoids red blood cell metabolism. For instance, the reduced dilution and short route associated with inhalation reduces red blood cell metabolism of esmolol. Inhalation may also avoid reduced blood pressure and fainting. For instance, IV administration of beta blockers, such as esmolol, and/or Class I antiarrhythmics such as flecainide, may reduce mean arterial blood pressure (MAP). Inhalation can allow rapid delivery of esmolol and/or flecainide without reducing MAP. […]

The subject of a further data set is PAF. The note with it: cited from earlier work.
A short description of data set [1]: Assessment of different inhalers with flecainide acetate (FA) solution at 30 mg/ml. It counts as physicochemical. The method, then: Different inhalers were then tested to assess compatibility of material to the different materials of construction and different types of inhalers (Table 2).
The Trek S from PARI was able to deliver the same dose in about 3 minutes.

Data set [2] relates to animal displaying atrial fibrillation. The data set can be described thus: Treatment of atrial fibrillation by intra-tracheal flecainide, monitored by smartphone ECG and Prucka System. The format is in vivo. The note with it: intra-tracheal administration of 0.75 mg/kg; animal in atrial fibrillation. The method, then:
An exemplary smart phone app was installed on a smartphone in order to monitor the efficacy of FA at ceasing incidence of atrial fibrillation. The smartphone app allowed for communication between the smart phone and an electronic monitoring chip used to produce an ECG.
The smart phone device was then used to monitor the treatment efficacy of an intra-tracheal administration of 0.75 mg/kg flecainide in treating atrial fibrillation. FIG. 9 depicts an exemplary ECG produced from a smartphone as compared to a Prucka System in an animal displaying atrial fibrillation. Again, the traces show excellent correlation between the two devices.

For `COc1ccc([C@@H]2Sc3ccccc3N(CCN(C)C)C(=O)[C@@H]2OC(C)=O)cc1` [diltiazem], in the data set on atrial fibrillation, the “Effect on atrial fibrillation rhythm” value is on record as “converted atrial fibrillation to normal sinus rhythm” and the “Effect on heart rate” value was “reduced heart rate”.

As for `O=C(NCC1CCCCN1)c1cc(OCC(F)(F)F)ccc1OCC(F)(F)F` (stereo not shown) [flecainide], the “Average time to terminate the PAF” value in the data set on PAF (oral bolus of 300 mg (max per day) at one time) was 100 min. The “Effectiveness of oral flecainide” value with PAF (oral) is 30-50%. For the same compound, the “Time to deliver a 30-40 mg dose” value in data set [1] (Pari e-rapid or Lumiscope inhalers, 30-40 mg dose) is given as “less than 2 minutes”; in data set [1] (Trek S from PARI, same 30-40 mg dose) it was “about 3 minutes”. Besides, the “Effect on atrial fibrillation (ECG rhythm)” value in data set [2] is reported as “return to sinus rhythm”.
